Square brackets hold non-standard residues; d marks the D form. Peptide text beside a SMILES is read from it. * marks the point of attachment. PhAc = O=C(Cc1ccccc1)*
Columns and labels:
Type in all cases: in vivo
[1] = tested on: New Zealand white rabbits; experiment: Rabbit cardiac allograft model; details: for Expression on Coronary Arteries: ICAM-1 / Expression on Coronary Arteries: Macrophages / Expression on Coronary Arteries: T cells / Expression on Coronary Arteries: Total Fibronectin / Expression on Coronary Arteries: VCAM-1 / Vessel Intimal Thickening: Percent of Vessels / Vessel Intimal Thickening: Severity (Percent of Vessel area) / Expression on Coronary Arteries: MHC Class II: 1 mg/kg s.c., donor heart; for Expression on Coronary Arteries: MHC Class II: 7 to 8 days; on Expression on Coronary Arteries: ICAM-1: key: -: negative; ±: minimal; +: little; ++: moderately abundant; +++: very abundant; on Expression on Coronary Arteries: Macrophages: key: -: negative; ±: minimal; +: little; ++: moderately abundant; +++: very abundant; on Expression on Coronary Arteries: T cells: key: -: negative; ±: minimal; +: little; ++: moderately abundant; +++: very abundant; on Expression on Coronary Arteries: Total Fibronectin: key: -: negative; ±: minimal; +: little; ++: moderately abundant; +++: very abundant
Text: New Zealand white female rabbits (Charles River Lab., Saint Laurent, Quebec), between 3.5 and 4 kg underwent heterotopic cardiac transplant following an experimental protocol previously described [Alonso et al., Am. J. Pathol., 87:415-442 (1977); Clausell et al., Circulation, 89:2768-2779 (1994)] and approved by the Animal Care Committee of The Hospital for Sick Children, Toronto. The animals were […] to favor an HLA-mismatch, the host rabbits were Pasteurella-free and the donors, outbred animals. Both host and donor rabbits were fed Purina 5321-0.5 percent cholesterol diet (Research Diets Inc., New Brunswick, N.J.), a strategy that has proven useful in accelerating the process of allograft arteriopathy [Alonso et al., Am. J. Pathol., 87:415-442 (1977)]. The diet was commenced four days prior to the transplant and continued in the recipient of the transplant until the completion of the experimental period.
The technique of heterotopic cardiac transplantation has been previously described [Clausell et al., Circulation, 89:2768-2779 (1994)]. Briefly, a vertical incision was performed in the anterior aspect of the neck of the recipient rabbit and the left common carotid artery and the ipsilateral external jugular vein were isolated. The cardiac allograft was placed in the neck by anastomosing the aorta end-to-side to the recipient's carotid artery and the pulmonary end-to-side to the recipient's external jugular vein, following a total period of ischemia for the donor hearts of approximately 30 minutes. Postoperative care was in compliance with the Principles of Laboratory Animal Care formulated by the Canadian National Society for Medical Research.
Beginning the day of the transplant, the animals were randomized and treated with either scrambled peptide (control group) at 1 mg/kg s.c. or the inhibitor peptide at 1 mg/kg s.c. The doses of the peptides were empirically extrapolated to the in vivo model based on preliminary in vitro studies, of Table 1. No other immunosuppression therapy was administered. The grafts were monitored daily by palpation and maintained for 7 to 8 days, a previously described endpoint that was associated with myocardial rejection (impaired cardiac contractility) and development of the allograft arteriopathy in this model [Clausell et al., Circulation, 89:2768-2779 (1994)]. A total of fourteen animals were studied in the control (n=7) and treated (n=7) groups.
The animals were sacrificed using a lethal dose of euthanol (480 mg i.v.) (MTC Pharmaceutical, Cambridge, ON), host and donor hearts were removed, and the coronary arteries were perfused with saline through the aorta, followed by light fixation by perfusion with 2 percent paraformaldehyde (Sigma, St, Louis, Mo.). […] Different sections of the hearts were either saved in 10 percent formalin (BDH Inc., Toronto, ON) for light microscopy studies or immediately frozen in O.T.C. Compound Tissue Tek (Miles Inc., Elkart, Ind.) for specific immunohistochemistry studies.
Three different paraffin-embedded tissue sections from host and donor hearts from both control and treated rabbits were stained by the Movat pentachrome method for light microscopy. Morphometric analysis was performed using a Zeiss microscope attached to a computer-generated video analysis system (Perceptics Inc., NuVision software), as described in Clausell et al., Circulation, 89:2768-2779 (1994). The number of vessels with intimal lesions were counted in all three heart sections from each animal studied and are expressed as a percentage of the total vessel number.
In the host hearts, 999 vessels in the control group and 1054 vessels in the treated group were analyzed. In the donor hearts, 827 vessels in the control group and 617 vessels in the treated group were analyzed. […]

[2] = tested on: asthmatic sheep; experiment: Treatment of asthmatic sheep (Ascaris suum antigen); details: for PC400, carbacol dosage to increase SRL 4-fold, 24 hours after challenge: pre-challenge values about 20-23 BU
Procedure: Six asthmatic sheep were treated in a double blind cross-over study by Dr. William M. Abraham of the Department of Research, Mount Sinai Medical Center, 4300 Alton Road, Miami Beach, Fla. 33140. […] This study was carried out generally as described in Abraham et al., J. Clin. Invest., 93:776-787 (1994).
The inhibitor peptide used here was N--phenylacetyl--Leu--Asp--Phe--D--Pro--NH2, with a control peptide that comprised the previously described peptide having the same residues in a scrambled sequence. The vehicle for the nebulized peptides was phosphate-buffered saline. The peptides were administered at a dose of 1 mg/kg each, twice a day for three days prior to challenge, as well as 0.5 hours prior to and four hours post challenge on day 4. Because this was a crossover study, each animal received one or the other treatment, followed by a rest and then the other treatment. Each animal therefore served as its own control.

[3] = tested on: SJL/J mice; experiment: Experimental autoimmune encephalomyelitis in mice; details: 1 mg/mouse i.p. at days 8 and 9; versus scrambled control peptide
Procedure: EAE was induced in female SJL/J mice (8 to 14 weeks old) by immunization on day zero with 50 μg of a peptide corresponding to positions 139-151 of PLP emulsified in a 1:1 mixture of PBS and complete Freund's adjuvant (CFA). Each mouse was injected with 0.2 ml of the adjuvant emulsion subcutaneously (s.c.) at two sites in the hind flank. All mice received 10^7 killed Bordetella pertussis units in 100 μl were injected intravenously 24 to 72 hours later.
Mice were observed daily, beginning at day 8 for clinical signs of EAE, and disease was scored on a scale of 0-5 as: 0=no disease; 1=floppy tail; 2=moderate hind limb weakness; 3=paraparesis; 4=paraplegis with moderate forelimb weakness; 5=qualdriplegis or premoribund state.
The inhibitor peptide N--phenylacetyl--Leu--Asp--Phe--D--Pro--NH2 was administered intraperitoneally at 1 mg/mouse in 0.2 ml of incomplete Freund's adjuvant at days 8 and 9. A peptide having a scrambled sequence [N--phenylacetyl--Asp--Leu--Phe--D--Pro--NH2 ] was similarly administered to serve as a control.
Summed or averaged scores for clinical signs were plotted vs. time. The area under the resulting curves was calculated between day 8 and day 35 to calculate percentage inhibition of EAE by an inhibitor peptide. The percent inhibition was calculated as follows: [formula]

Row | SMILES | Expression on Coronary Arteries: ICAM-1 [1] | Expression on Coronary Arteries: Macrophages [1] | Expression on Coronary Arteries: T cells [1] | Expression on Coronary Arteries: Total Fibronectin [1] | Expression on Coronary Arteries: VCAM-1 [1] | Vessel Intimal Thickening: Percent of Vessels [1] | Vessel Intimal Thickening: Severity (Percent of Vessel area) [1] | Expression on Coronary Arteries: MHC Class II [1] | Baseline (rabbit own host heart) of incidence [1] | Baseline (rabbit own host heart) of severity [1] | PC400, carbacol dosage to increase SRL 4-fold, 24 hours after challenge [2] | clinical signs of EAE [3] | change in specific lung resistance (SRL) after challenge (FIG. 7) ([2]; 1 mg/kg nebulized twice a day, versus control peptide)
1 | CC(C)C[C@H](NC(=O)[C@H](CC(=O)O)NC(=O)Cc1ccccc1)C(=O)N[C@@H](Cc1ccccc1)C(=O)N1CCC[C@@H]1C(N)=O [X L D F p phenylacetyl amide scrambled, N--phenylacetyl--Asp--Leu--Phe--D--Pro--NH2, reference compound] (PhAc-DLF[dP]-NH2) | + | + | ++ | ++ | + | 88% | 36% | ++ | 1% | 12% | about 12 BU |  | 
2 | CC(C)C[C@H](NC(=O)Cc1ccccc1)C(=O)N[C@@H](CC(=O)O)C(=O)N[C@@H](Cc1ccccc1)C(=O)N1CCC[C@@H]1C(N)=O [X L D F p phenylacetyl amide, N--phenylacetyl--Leu--Asp--Phe--D--Pro--NH2] (PhAc-LDF[dP]-NH2) | ± | ± | ± | ± | ± | 35% | 16% | ± | 12% | 12% | about 27 BU | marked improvement in clinical signs | less of a change from baseline specific lung resistance
